Source: patent US20250255889A1, “METHODS FOR TREATMENT SELECTION FOR CHRONIC LYMPHOCYTIC LEUKEMIA (CLL)” (The Broad Institute, Inc., priority 2022, published 2025)

Tested on: primary CLL samples (CD19+ and CD5+ cells)
Test: High-throughput dynamic BH3 profiling (HT-DBP): drug-induced apoptotic priming (delta priming), cytochrome c release after BH3 peptide
Type: cell-based, human
Summary of the method: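 Primary CLL cells (CD19+/CD5+) are treated with the agent or DMSO carrier, then briefly exposed to a fixed concentration of a promiscuous BH3 peptide such as BIM. Mitochondrial cytochrome c release serves as the priming surrogate. Delta priming is drug-treated priming minus DMSO-treated priming, run in high-throughput format.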

[1] = peptide PUMA 1 uM, feature loss_3p21.31
[2] = peptide MS1 2.5 uM, feature m-CLL
[3] = peptide PUMA 1 uM, feature i-CLL
[4] = peptide BAD 0.3 uM, feature ITIH2
[5] = peptide BAD 0.3 uM, feature i-CLL
[6] = peptide BAD 0.3 uM, feature BIRC3
[7] = peptide BAD 0.3 uM, feature loss_9p21.3
[8] = peptide BAD 0.3 uM, feature loss_17q11.2
[9] = peptide BIM 0.01 uM, feature BCOR
[10] = peptide BIM 0.01 uM, feature n-CLL
[11] = peptide MS1 2.5 uM, feature SAMHD1
[12] = peptide MS1 2.5 uM, feature BIRC3
[13] = peptide MS1 2.5 uM, feature ITIH2
[14] = peptide MS1 2.5 uM, feature loss_9p21.3
[15] = peptide MS1 2.5 uM, feature loss_17q11.2

Compound: C=CC(=O)Nc1cc(Nc2nccc(-c3cn(C)c4ccccc34)n2)c(OC)cc1N(C)CCN(C)C [Osimertinib]
- direction (peptide BAD 0.3 uM, feature IGLV321_R110): Resistant
- direction (peptide BAD 0.3 uM, feature MYD88): Resistant
- direction (peptide BAD 0.3 uM, feature NOTCH1): Resistant
- direction (peptide BAD 0.3 uM, feature RPS15): Resistant
- direction (peptide BAD 0.3 uM, feature loss_6q): Resistant
- direction (peptide BIM 0.01 uM, feature BIRC3): Sensitive
- direction (peptide BIM 0.01 uM, feature EC-u2): Sensitive
- direction (peptide BIM 0.01 uM, feature IGLV321_R110): Resistant
- direction (peptide BIM 0.01 uM, feature NOTCH1): Resistant
- direction (peptide BIM 0.01 uM, feature RPS15): Resistant
- direction (peptide BIM 0.01 uM, feature loss_6q): Resistant
- direction (peptide BIM 0.01 uM, feature loss_9p21.3): Sensitive
- direction (peptide BIM 0.01 uM, feature loss_17q11.2): Sensitive
- direction (peptide MS1 2.5 uM, feature EC-i): Resistant
- direction (peptide MS1 2.5 uM, feature IGLV321_R110): Resistant
- direction (peptide MS1 2.5 uM, feature NOTCH1): Resistant
- direction (peptide MS1 2.5 uM, feature RPS15): Resistant
- direction (peptide MS1 2.5 uM, feature loss_6q): Resistant
- direction (peptide PUMA 1 uM, feature BIRC3): Sensitive
- direction (peptide PUMA 1 uM, feature MYD88): Resistant
- direction [1]: Resistant
- direction (peptide PUMA 1 uM, feature loss_9p21.3): Sensitive
- direction (peptide PUMA 1 uM, feature loss_17q11.2): Sensitive

Compound: O=C(CCCCCCNC(=O)c1cnc(N(c2ccccc2)c2ccccc2)nc1)NO [Ricolinostat]
- direction (peptide BAD 0.3 uM, feature CARD11): Sensitive
- direction (peptide BIM 0.01 uM, feature i-CLL): Resistant
- direction (peptide BIM 0.01 uM, feature loss_15q15.1b): Resistant
- direction (peptide BIM 0.01 uM, feature loss_20p11.22): Resistant
- direction (peptide MS1 2.5 uM, feature CNOT3): Sensitive
- direction (peptide MS1 2.5 uM, feature loss_10q24.32): Resistant
- direction [2]: Sensitive
- direction (peptide PUMA 1 uM, feature CARD11): Sensitive
- direction (peptide PUMA 1 uM, feature gain_16p11.2): Resistant
- direction [3]: Resistant
- direction (peptide PUMA 1 uM, feature loss_1q21.3): Resistant
- direction (peptide PUMA 1 uM, feature loss_2q31.1): Resistant
- direction [1]: Resistant
- direction (peptide PUMA 1 uM, feature loss_5p15.33): Resistant
- direction (peptide PUMA 1 uM, feature loss_7p22.2): Resistant
- direction (peptide PUMA 1 uM, feature loss_10p12.2): Resistant
- direction (peptide PUMA 1 uM, feature loss_12p13.31a): Resistant
- direction (peptide PUMA 1 uM, feature loss_14q32.12): Resistant
- direction (peptide PUMA 1 uM, feature loss_15q15.1b): Resistant
- direction (peptide PUMA 1 uM, feature loss_16q22.1): Resistant
- direction (peptide PUMA 1 uM, feature loss_17p13.3): Resistant
- direction (peptide PUMA 1 uM, feature loss_20p11.22): Resistant
- direction (peptide PUMA 1 uM, feature m-CLL): Sensitive

Compound: O=C(/C=C\n1cnc(-c2cc(C(F)(F)F)cc(C(F)(F)F)c2)n1)NNc1cnccn1 [Selinexor]
- direction (Feature MYD88): Sensitive
- direction [4]: Sensitive
- direction (peptide BIM 0.01 uM, feature MYD88): Sensitive
- direction (peptide PUMA 1 uM, feature loss_7q36.1): Sensitive
- direction (peptide PUMA 1 uM, feature loss_8p): Sensitive

Compound: CNC(=O)c1cc(Oc2ccc(NC(=O)Nc3ccc(Cl)c(C(F)(F)F)c3)cc2)ccn1 [Sorafenib]
- direction (peptide BAD 0.3 uM, feature GNB1): Sensitive
- direction (peptide BAD 0.3 uM, feature RFX7): Sensitive
- direction (peptide BAD 0.3 uM, feature ZMYM3): Sensitive
- direction [5]: Resistant
- direction (peptide BIM 0.01 uM, feature FBXW7): Resistant
- direction (peptide BIM 0.01 uM, feature GNB1): Sensitive
- direction (peptide BIM 0.01 uM, feature RFX7): Resistant
- direction (peptide BIM 0.01 uM, feature ZMYM3): Resistant
- direction (peptide BIM 0.01 uM, feature gain_19p13.3): Resistant
- direction (peptide BIM 0.01 uM, feature loss_2q31.1): Resistant
- direction (peptide BIM 0.01 uM, feature loss_10p12.2): Resistant
- direction (peptide MS1 2.5 uM, feature RFX7): Resistant
- direction (peptide MS1 2.5 uM, feature ZMYM3): Resistant
- direction (peptide MS1 2.5 uM, feature gain_19p13.3): Resistant
- direction (peptide MS1 2.5 uM, feature loss_2q31.1): Resistant
- direction (peptide MS1 2.5 uM, feature loss_10p12.2): Resistant
- direction (peptide MS1 2.5 uM, feature loss_10q24.2): Resistant
- direction (peptide MS1 2.5 uM, feature loss_11q22.3): Resistant
- direction [2]: Sensitive
- direction (peptide MS1 2.5 uM, feature priortrt_Post): Resistant
- direction (peptide PUMA 1 uM, feature FBXW7): Resistant
- direction (peptide PUMA 1 uM, feature RFX7): Resistant
- direction (peptide PUMA 1 uM, feature ZMYM3): Resistant

Compound: O=C(CCCCCCC(=O)Nc1ccccc1)NO [Vorinostat]
- direction (Feature EC-m2): Sensitive
- direction (Feature EC-m4): Resistant
- direction (peptide BIM 0.01 uM, feature EC-m2): Sensitive
- direction (peptide BIM 0.01 uM, feature EC-m4): Resistant
- direction (peptide PUMA 1 uM, feature EC-m2): Sensitive
- direction [3]: Resistant
- direction (peptide PUMA 1 uM, feature loss_6q21): Sensitive

Compound: CN1CC[C@@H](c2c(O)cc(O)c3c(=O)cc(-c4ccc(C(F)(F)F)cc4Cl)oc23)[C@@H]1CO [Voruciclib]
- direction [6]: Sensitive
- dprim_pearson_corr [6]: 0.3672
- direction [4]: Sensitive
- dprim_pearson_corr [4]: 0.3672
- direction [5]: Sensitive
- dprim_pearson_corr [5]: 0.4321
- direction [7]: Sensitive
- dprim_pearson_corr [7]: 0.3672
- direction [8]: Sensitive
- dprim_pearson_corr [8]: 0.3672
- direction [9]: Resistant
- dprim_pearson_corr [9]: −0.4056
- direction [10]: Resistant
- dprim_pearson_corr [10]: −0.3372
- direction [11]: Resistant
- dprim_pearson_corr [11]: −0.3337
- direction (peptide PUMA 1 uM, feature SF3B1): Resistant
- direction [3]: Sensitive

Compound: fludarabine
- response (apoptotic priming) (IGHV mutated CLLs, FDR<0.1, t-test): significant response
- direction [12]: Sensitive
- dprim_pearson_corr [12]: 0.4431
- direction [13]: Sensitive
- dprim_pearson_corr [13]: 0.5036
- direction [14]: Sensitive
- dprim_pearson_corr [14]: 0.4431
- direction [15]: Sensitive
- dprim_pearson_corr [15]: 0.4431
